Read-outs that look alike come from different tables or passages of the source. Each block holds one compound with its values, some of them ahead of it.
Columns and labels:
[1] = DAP PCDS direct diffusion (SPME-GC/MS); type: physicochemical; conditions: DAP/PCDS diffuser, 40 mL, 6 capillaries
Description: Three diffusers, each containing 40 mL of solution and 6 capillaries, were prepared and diffused. The first points were measured at T=1d, T=2, and T=3d, then every Monday, Wednesday and Friday of each study week until the diffusers no longer contained any solution. To measure the pheromone released into the air at each study time, the diffuser is first weighed (with the sticks) to measure mass loss, then placed in an enclosed area (in this case, an upside-down aquarium) containing a SPME fiber, as shown in FIG. 24.
The fiber is left to diffuse above the diffuser for 2 hours (a time determined in a previous method development as the optimum time for molecules to adsorb to the phase), then analyzed using the gas chromatography/mass spectrometry (GC/MS) technique.
Three diffusers were studied for greater accuracy. The chromatograms obtained are reprocessed using GC/MS Solution software.
For each chromatographic peak, the area is recorded using GC/MS Solution software, then entered into an Excel spreadsheet. Diffusion curves giving the area of the chromatographic peak corresponding to each active ingredient as a function of time are then plotted.
Analyses were carried out by gas chromatography/mass spectrometry (GC/MS). The instrument was a Shimadzu GCMS QP2010SE® equipped with an AOC 6000® autosampler. Separation was carried out on a ZB-FFAP® column (30 m×0.25 mm×0.25 μm, stationary phase: nitroterephthalic acid-modified polyethylene glycol) supplied by Phenomenex. The furnace temperature was initially set at 80° C. for 1 minute, then increased at 10° C./min to 240° C. and maintained at this temperature for 2 minutes. The carrier gas was helium at a flow rate of 1 mL/min. Analysis time is 19 minutes.
The injector is a split/splitless injector used in split mode (temperature: 250° C., split: 50:1). The SPME fiber was injected directly into the injector and left to desorb for 15 minutes.
The separated molecules were detected using a mass spectrometer equipped with an electron impact source (temperature: 200° C.). The analyzer is a simple quadrupole. The interface temperature is 250° C. Data were acquired in FASST mode (Fast automated SCAN/SIM type), i.e. part of the analysis was performed by scanning all ions (SCAN) and part by selecting specific ions (SIM). Target molecules were thus analyzed using ion selection.

[2] = Ratios of molecules diffused through the sticks over time; type: physicochemical
Description: Furthermore, as small molecules diffuse more, it happens that they lose intensity over the course of the study, so the ratios are different 24 hours after immersing the sticks in the liquid and 21 days later. Here are the ratios for each pheromone studied at the start of the study and at the end.

[3] = F3 migration along the stick (top 1 cm, GC/MS); type: physicochemical; conditions: F3, five sticks
Description: Three devices containing 40 mL of F3 feline facial pheromone product and five […] sticks were prepared and left on diffusion. A t=1 day, T=3 days, T=10 days, T=15 days and T=22 days after preparation of the devices, one stick was taken on each device and 1 cm of the top of each stick was cut, then extracted with acetone 1 h in an ultrasonic bath and analysed by gas chromatography coupled with mass spectrometry (GC/MS). The same analytical parameters were used for the study C with a liquid injection (injected quantity: […]) Blank analysis and matrix blank analysis were also performed.

[4] = F3 block stability study in sodium stearate aqueous gel (GC-MS); type: physicochemical; conditions: after 3 months
Description: Aqueous sodium stearate gel is a method used by SIGNS for several of the pheromones it markets (pork, poultry, rabbit). The sodium stearate matrix is cast at high temperature (60° C.) and contains 2% pheromone. In this study, matrix samples are taken by coring, and the active ingredients are extracted by apolar solvent, using the SIGNS-validated quality control method. Extracts are analyzed by GC-MS. […] Given this observation, formula F3 cannot be used in blocks for passive diffusion, so a change of galenic formulation is necessary.

[5] = F3 sticks device, direct diffusion, 40 mL and four sticks (SPME GC/MS); type: physicochemical; conditions: four sticks
Description: Three devices containing 40 mL of F3 feline facial pheromone product and four rattan sticks were prepared and left on diffusion. Every Monday, Wednesday and Friday, the diffusion of the pheromone in air was checked by analysis by gas chromatography coupled with mass spectrometer (GC/MS) and SPME (solid phase microextraction) until there is no liquid left (about 22 days).
To that purpose, the studied device was taken and placed into a closed space (in our case an aquarium turned over) containing the SPME fiber as shown on FIG. 24.
The SPME fiber was left for two hours to give the time for the molecules to adsorb on the fiber, then the fiber was injected into the GC/MS instrument for analysis.
Analysis were carried out using gas chromatography with mass spectrometer. The instrument was a GCMS QP2010SE® from Shimadzu with an AOC6000® Autosampler. The separation was performed on a ZB-5 MS® column (30 m×0.25 mm×0.25 μm, stationary phase: 95% Dimethylpolysiloxane, 5% Phenyl-Arylene) from Phenomenex. The GC oven temperature was initially held at 100° C. for 1 minute then increased at a pace of 10° C./min to 120° C. and left at this temperature for 3 minutes. Finally, the oven temperature was increased at a pace of 10° C./min to 240° C. and left at this temperature for 10 minutes. The carrier gas was helium at 1 mL/min. Analysis were performed in split mode using a split/splitless injector (Temperature: 250° C., split: 1:20). The SPME fiber was directly injected into the injector and left for 30 minutes. Separated molecules were detected using a mass spectrometer which was operated in electron impact ionization (EI) in both full scan (FS) and single ion monitoring (SIM) modes, so called FASST (Fast Automated SCAN/SIM type) mode. The interface temperature was set at 300° C. and electron impact source temperature at 250° C. The analyser was a quadrupole.
For the measurement of the relative quantity of active ingredient spreading in air, the area of the chromatographic peak corresponding to the compound was measured using Shimadzu GCMS-Solution software.

[6] = cited from earlier work
[7] = Pheromone migrated to the stick tips (GC/FID); type: physicochemical; conditions: on stick tips, despecified pheromone
Description: In the course of this study, we also measured the amount of pheromone migrating on the sticks, to check that the pheromone had migrated to the top of the sticks, helping it to diffuse into the air. To do this, the test is the same as for the diffuser blocks: 2.5 g of stick tips are cut off and placed in a 50 mL flask, which is then placed in an ultrasonic bath for one hour. The resulting solution is filtered (to avoid injecting particles into the instrument) and placed in a chromatographic vial for analysis.

[8] = Direct diffusion of diffuser blocks (SPME GC/MS); type: physicochemical; conditions: despecified pheromone 2%, 4 weeks
Description: Analyses were carried out using gas chromatography (GC) coupled to a mass spectrometer (MS) detector, a technique commonly referred to as GCMS. The molecules of interest were extracted using the Solid Phase Micro-Extraction (SPME) technique. The instrument used was the following: QP2010SE® from Shimadzu (See FIG. 4).
AOC 6000® automatic feeder • Extraction/SPME fiber: polyacrylate/Fused silica (85 μm), 23 Ga. • Adsorption time: 2 hours (exposure time of fiber above block) (See FIG. 4) • Desorption time: 30 minutes (fiber exposure time in injector) • Fiber-block distance: 2 cm • Injection: split/splitless injector • Temperature: 250° C., split 50 mode. • Separation: ZB-FFAP® column (Phénomenex), length: 30 m, diameter: 250 μm, film thickness: […]
• Carrier gas: Helium (He) • Analysis time: 18 min (not including time to return to equilibrium between each analysis injection • Detection: mass spectrometer with electron impact source/analyzer: quadrupole. • Source temperature: 200° C. • Interface temperature: 250° C. • Scan m/z 50 to m/z 500 • SIM with ions 55, 66 and 74.
Analyses were carried out in triplicate to verify reproducibility of results.
With the SPME method, results are evaluated by measuring the chromatographic peak area. The data have been plotted on diffusion curve (see FIGS. 5 and 6).

[9] = Indirect assay of diffuser blocks (GC/FID, pheromone remaining in the block); type: physicochemical; conditions: despecified pheromone
Description: Analyses were carried out using the gas chromatography (GC) technique with a flame ionization detector (FID), commonly known as GC/FID. The instrument used was the Shimadzu GC2025.® • Injection: Quantity injected: 1 μL, split 50:1, temperature: 230° C. • Separation: DB-WAX column (Agilent), length: 20 m, diameter: 180 μm, film thickness: […] • Carrier gas: Helium (He) • Analysis time: 11.50 min (not including time to return to equilibrium between each analysis) injection). • Detection: FID, temperature: 250° C., flow rates: H2: 40 mL/min, Air: 400 mL/min, Nitrogen (make-up): 30 mL/min. To obtain a representative sample, “cores” were drilled at various positions in the block and then collected. 2.5 g of gel were weighed into a 50 mL volumetric flask and the volume made up to the beginning of the neck of the flask with acetone. The flask was then placed in an ultrasonic bath for one hour until the block was dissolved (a white precipitate was obtained), then acetone was added to the mark. An aliquot of this solution was placed in a syringe fitted with a syringe filter and filtered to obtain a translucent solution. The resulting solution was transferred to a 1.5 mL GC vial for analysis. The assays were carried out using a calibration range.

[10] = Indirect assay of rod diffuser solution (GC/FID); type: physicochemical; conditions: stick diffuser solution, despecified pheromone
Description: Solution integrity was checked at each analysis time. Before each indirect assay, the vial was weighed to visualize mass loss over time. Each vial contained six sticks. • Specifications: the solution must lose mass over time. • Result: Compliant—See FIG. 9 This is the same analytical method as for the diffuser block study, only the sample preparation differs. 1.25 g of solution were weighed into a 25 mL volumetric flask and the volume made up to the mark with acetone. The resulting solution is transferred to a 1.5 mL GC vial for analysis. This is exactly the same calibration range as for the diffuser block study.

[11] = DAP, 24 h after immersion of sticks
[12] = DAP, 21 days after immersion of sticks (empty tank)
[13] = F3P, 24 h after immersion of the sticks
[14] = F3P, 21 days after immersion of sticks (empty tank)

SMILES: COC(C)(C)CCO [3-methoxy-3-methyl-1-butanol]
vapor pressure ([6]; at 20° C.): 0.07 kPa
vapor pressure ([6]; at 25° C.): 0.12 kPa

SMILES: CCCCCCCCCCCCCCCCCC(=O)OC [methyl stearate, methyl octadecanoate]
direct diffusion over time [1]: diffuses the least
ratio of molecules diffused through the sticks [2, 11]: 0.5 % (w/w)
ratio of molecules diffused through the sticks [2, 12]: 1 % (w/w)
ratio of molecules diffused through the sticks [2, 13]: 0.1 % (w/w)
ratio of molecules diffused through the sticks [2, 14]: 0.1 % (w/w)

SMILES: CCCCC/C=C\C/C=C\CCCCCCCC(=O)OC [methyl linoleate, methyl (9Z,12Z)-octadeca-9,12-dienoate]
direct diffusion over time [1]: slight increase over time
% of the active ingredient in the pheromone ([7]; day 7): 29.7%
% of the active ingredient in the pheromone ([7]; day 14): 30.1%
% of the active ingredient in the pheromone ([7]; day 21): 28.6%
direct diffusion from the diffuser block [8]: lowest intensity
% of the active ingredient in the pheromone ([9]; day 0): 30.4%
% of the active ingredient in the pheromone ([9]; day 7): 30.2%
% of the active ingredient in the pheromone ([9]; day 14): 30.4%
% of the active ingredient in the pheromone ([9]; day 21): 30.5%
% of the active ingredient in the pheromone ([9]; day 28): 30.5%
% of the active ingredient in the pheromone ([10]; day 0): 30.0%
% of the active ingredient in the pheromone ([10]; day 7): 30.0%
% of the active ingredient in the pheromone ([10]; day 14): 30.1%
% of the active ingredient in the pheromone ([10]; day 21): 31.5%
ratio of molecules diffused through the sticks [2, 11]: 3 % (w/w)
ratio of molecules diffused through the sticks [2, 12]: 4 % (w/w)
ratio of molecules diffused through the sticks ([2]; Despecified pheromone (Core), 5 days after immersion of the sticks): 2 % (w/w)
ratio of molecules diffused through the sticks ([2]; Despecified pheromone (Core), 21 days after immersion of sticks (empty tank)): 4 % (w/w)
ratio of molecules diffused through the sticks [2, 13]: 0.3 % (w/w)
ratio of molecules diffused through the sticks [2, 14]: 0.5 % (w/w)

Other lines, results leading:

direct diffusion over time [1]: slight increase over time
ratio of molecules diffused through the sticks [2, 11]: 7 % (w/w)
ratio of molecules diffused through the sticks [2, 12]: 9 % (w/w)
SMILES: CCCCCCCCCCCCCCC(=O)OC [methyl pentadecanoate]

relative quantity on the top of the stick [3]: less present
stability in the block [4]: disappeared completely
direct diffusion over time [5]: constant diffusion
ratio of molecules diffused through the sticks ([2]; F3, 24 h after immersion of sticks): 25 % (w/w)
ratio of molecules diffused through the sticks ([2]; F3, 21 days after immersion of sticks (empty tank)): 43 % (w/w)
ratio of molecules diffused through the sticks [2, 13]: 18 % (w/w)
ratio of molecules diffused through the sticks [2, 14]: 31.3 % (w/w)
SMILES: COC(=O)CCCCCCCC(=O)OC [dimethyl azelate, dimethyl nonanedioate]
